We go through one substance from US12100497B1, “Population-based immune rescue via herd immunity mediated by cells” (Channel Content Company LLC, priority 2023, dated 2024).

Assay [1] concerns Covid. The assay can be described thus: One year investigation at Prestige Home Health, vitamin D protocol, Covid positive tests. Format: in vivo, human. Particulars: target vitamin D level 60 ng/ml. The protocol: In order to test some of the concepts disclosed herein, a one year investigation was conducted to gather data where there was an objective of bringing participants to a target level of vitamin D of 60 ng/ml treated at home by staff at Prestige Home Health in Starr county, Texas and also residents of nursing homes. Data on patients and staff was provided by Yolanda Garza registered nurse (RN)/Director of Nursing (DON) on Sep. 19, 2022. For patients that followed the disclosed protocol, zero tested positive for Covid as compared to fifty-three patients who tested positive for Covid who were not on the protocol. During the same one year period, four staff members on the disclosed protocol tested positive for Covid compared to 83 staff members who tested positive who were not on the disclosed protocol. Prestige Home Health also provided portable humidifiers in homes of many of the patients treated at home. Little or no sensors were provided to determine the level of humidification. Retama Manor also tried to make indoor humidify viral safe inside their facility by including humidifiers again without sensors. Though the capacity of their humidifiers was subpar, indoor humidity in all likelihood contributed to the facility's remarkable overall success. Only one patient at Retama Manor whose Vitamin D level was in the viral safe range tested positive during the 15 month study period.

Assay [2] relates to Covid. The assay can be described thus: Retama Manor nursing home 15 month study, vitamin D protocol, Covid positive tests. Type of assay: in vivo, human.
Assay [3] deals with acute respiratory illness. The settings on record: higher doses of vitamin D; patients studied for a year; cited from earlier work.
The conditions of assay [4]: vitamin D exposure over 10 years; cohort of 12,388 persons; cited from earlier work.

In the case of vitamin D, the “patients on the disclosed protocol who tested positive for Covid” value in the assay on Covid [1] (53 positive patients not on protocol) is reported as “zero”. Moreover, in the assay with Covid [1] (83 positive staff not on protocol), the “staff members on the disclosed protocol who tested positive for Covid” value was “four”. In addition, the “Covid cases per staff member, less than the other two nursing homes” value in the assay on Covid [2] (Retama Manor versus the other two nursing homes in Rio Grande City) came to 45%. The “patients on vitamin D protocol / in viral safe range who tested positive for Covid” value in the assay with Covid [2] (Retama Manor, 15 month (six quarter) study period) is listed as “one”. The “Dr. Mussett's patients who tested positive for Covid” value with Covid [2] (their patients at all three nursing homes in Rio Grande City, study period) is given as “two”. For the same substance, in assay [3], the “reduction in acute respiratory illness” value is recorded as 40%. Also, the “lowering of the risk of dementia” value in assay [4] is on record as 40%.
